Experimental data as given in patent US7338955B1, “Medicament for treatment of neuropathies” (Lilly ICOS LLC, priority 1999, dated 2008).

Experiments:
[1] = tested on: painful neuropathy; assay: Case report: type 1 diabetes patient with painful neuropathy treated with sildenafil; type: in vivo, human; conditions: 50 mg/week single administration
Protocol: A patient had been suffering from diabetes mellitus, type 1, for about 35 years. Complications included a retinopathy and a painful neuropathy. Under intensified insulin therapy, blood glucose metabolism data were in a sub-optimum range (HbA1c around 8%). Thus, the patient suffered from a painful neuropathy and was treated unsuccessfully with various conventional medicaments.
Objectifiable diagnostic data were improved as well.

[2] = tested on: diabetic polyneuropathy; assay: Case report: type 2 diabetes patient with diabetic polyneuropathy treated with sildenafil; type: in vivo, human; conditions: twelve months after start of therapy
Protocol: A patient had been suffering from diabetes mellitus, type 2, for 9 years. While blood glucose values (HbA1c between 6 and 7%) were good, symptoms of a diabetic polyneuropathy appeared, namely vibration sensing of 2/8, no filament sensing, and a reduced hot/cold differentiation. Because of a simultaneous erectile dysfunction they were treated with sildenafil in its commercially available preparation (tablets) at 50 mg/week in a single administration.
Subjectively, the patient noted disappearance of sensory misperceptions of temperature.

CCCc1nn(C)c2c(=O)[nH]c(-c3cc(S(=O)(=O)N4CCN(C)CC4)ccc3OCC)nc12 [sildenafil]
symptomatic pain ([1]; in the course of the following three months): lasting improvement | objectifiable diagnostic data ([1]; three months): improved | neurologic situation ([2]; 50 mg/week single administration (tablets)): largely normal | sensory misperceptions of temperature (subjective) ([2]; 50 mg/week): disappearance | vibration sensing ([2]; 50 mg/week, 2/8 before therapy): 5/8 | filament sensing ([2]; 50 mg/week, no filament sensing before therapy): intact | hot/cold differentiation ([2]; 50 mg/week, reduced before therapy): intact
